As a reminder, the IC50 is the point on the concentration scale where inhibition reaches its midpoint.

Results on one molecule are retold here after patent publication US7098241B2, “Thiophene hydroxamic acid derivatives” (Hoffmann-La Roche Inc., priority 2002, dated 2006).

SMILES strings stand for the structures.

Experiment [1] deals with HT-29 cells (human colon carcinoma cell line). The experiment is described as follows: MTT anti-proliferation assay on HT-29 cells. The class given is cell-based. To be noted: Homo sapiens, 120 h, 384 well plates, 5 days, read-out: IC50 HT29 384. From the text: MTT (3-(4,5-dimethylthiazol-2-yl)-2,5-diphenyl tetrazolium bromide) is widely used for the quantitative determination of cytotoxic effects or in vitro chemosensitivity of tumor cells. The assay is based on the cleavage of the yellow tetrazolium salt (MTT) to purple formazan crystals by metabolic active cells. For details, see Rubinstein, L. V., et al., J. Natl. Cancer Inst. 82 (1990) 1113.
We proceeded as follows: HT-29 cells (human colon carcinoma cell line) were cultivated in RPMI 1640, 2.5% FCS, 2 mM glutamine, 100 u/ml penicillin, 100 ug/ml streptomycin. For the assay the cells were seeded in 384 well plates, 900 cells per well, in the same medium. At the next day, the compounds (dissolved 10 mM in DMSO) were added in various concentrations ranging from 30 uM to 1.5 nM. After 5 days, the MTT assay was done mainly according to the instructions of the manufacturer (Cell proliferation kit I, MTT, from Roche Molecular Biochemicals). In brief: MTT labeling reagent was added to a final concentration of 0.5 mg/ml, added and incubated for 4 hrs at 37° C., 5% CO2. During this incubation time purple formazan crystals are formed. After addition of the solubilization solution (20% SDS in 0.02 M HCl) the plates were incubated overnight at 37° C., 5% CO2. After careful mixing, the plates were measured in Victor 2 (scanning multiwell spectrophotometer, Wallac) at 550 nm.
A decrease in number of living cells results in a decrease in the total metabolic activity in the sample. The decrease directly correlates to the amount of purple color resulting from the solubilization of the purple formazan crystals. Determination of IC50 was done using XL-fit.
For orientation: Tetrazolium assays rely on reduction of a dye to a coloured formazan, in cell work by metabolically active cells.

Experiment [2] deals with acetylated histone H3 in HT29 human colon carcinoma xenografts. The experiment is described as follows: Acetylation levels of histone H3 in HT29 tumor bearing mice. The class given is in vivo, NMRI nude mice. To be noted: for acetylated H3, BLU/1 μg histone protein: HT29 xenograft, mean; for acetylated H3, BLU % (BLU percent versus vehicle control): vehicle = 100. As to the method:
Determination of Acetylation Levels of Histone H3 in Tumor Bearing Mice
The HT-29 cell line is derived from a human colon adenocarcinoma and was obtained from ATCC and kept in an in house working cell bank for pharmacological use. Cells were cultured in RPMI1640/2 mM L-Glutamin medium supplemented with 10% heat inactivated FCS. For inoculation HT29 tumor cells are removed (Trypsin-EDTA, 50 U/mg) from culture flasks and transferred into culture medium (RPMI 1640, 10% heat inactivated FCS), washed and resuspended in sterile PBS to achieve a final cell concentration of 5×10^6/100 μl. Cell suspension was carefully mixed by regular shaking to avoid cell aggregation and filled into a 1.0 ml graded syringe. After s.c. inoculation of HT29 human colon carcinoma cells (5×10^6/100 μl) in the right upper quarter of ventral breast region of NMRI nude mice, animals were inspected 2–3 times per week until xenografts reached a volume of roughly 1000 mm^3 or more, sufficient for analysis of histone acetylation. After single i.p. application of 400 mg/kg of the compound of example 1, formulated as microsuspension in 7.5% modified gelatin with 0.22% NaCl solution, the respective group of animals was sacrificed 3, 6, 12, and 24 h after dosing. Tumors were excised for analysis of acetylated histones (H3). An aliquot of tumors (ca. 200 mg) was analyzed for acetylated H3. Histones were extracted from xenografts by standardized methods (Richon, V. M., et al., PNAS 97 (2000) 10014–10019; Yoshida, M., et al., J. Biol. Chem. 265 (1990) 17174–17179), separated and acetylated H3 identified by Slot Blot and Immuno Blot techniques (SB-IB, Bio-Rad Laboratories GmbH, Munich, Germany) using anti-acetyled-H3 Pabs (UpState Biotechnology, Cat. #06-599). Histone protein was determined (Pierce Kit) and adjusted to 3 mg/ml to apply a standardized amount of 1 μg histone protein for H3 analysis in SB-IB. Quantification of acetylated H3 was performed by ECL (Enhanced Chemo Luminescence, Amersham Pharmacia, Hybond™ ECL™ Nitrocellulose membrane) measuring bioluminescence with the Lumi-Imager instrument (Roche Diagnostics). Data are expressed either as BLU/μg histone protein (BLU=Bio-Luminescence-Units), or as BLU percent versus vehicle control. After single administration of the compound of example 1, there was a marked and significant increase of acetylated H3 lasting for up to 24 h compared to the vehicle groups. The maximum acetylation was attained 6 h after dosing. A tabulated summary of the mean values and percentual changes are depicted below.

Setting [3] is: 3 h after single i.p. 400 mg/kg.
[4] abbreviates: 6 h after single i.p. 400 mg/kg.
Setting [5] is: 12 h after single i.p. 400 mg/kg.
[6] abbreviates: 24 h after single i.p. 400 mg/kg.

In the case of `C[C@@H](NC(=O)c1ccc(C(=O)NO)s1)c1ccccc1` [Example 1, (R)-thiophene-2,5-dicarboxylic acid 2-hydroxyamide 5-[(1-phenyl-ethyl)-amide]], the half-inhibitory concentration (IC50) in experiment [1] was 0.17 µM. Also, the “acetylated H3, BLU/1 μg histone protein” value in experiment [2] (setting [3]) worked out at 57824 BLU/1 μg; in experiment [2] (setting [4]) it was 98717 BLU/1 μg; in experiment [2] (setting [5]), 75378 BLU/1 μg; in experiment [2] (setting [6]), 40965 BLU/1 μg. Besides, the “acetylated H3, BLU % (BLU percent versus vehicle control)” value stood at 466% in experiment [2] (setting [3]), 502% in experiment [2] (setting [4]), 447% in experiment [2] (setting [5]) and 269% in experiment [2] (setting [6]). For the same molecule, the “duration of marked and significant increase of acetylated H3 compared to vehicle” value in experiment [2] (single i.p. 400 mg/kg) was “up to 24 h”. For the same molecule, the “time of maximum acetylation after dosing” value in experiment [2] (single i.p. 400 mg/kg) is 6 h.
